Reference: patent publication US12708611B2, “Diagnostic and drug screening for molecular signatures of early onset sporadic parkinson's disease” (CEDARS-SINAI MEDICAL CENTER, priority 2018, dated 2026)
“Also recorded” adds a separate entry of the source. Where a SMILES comes first, the peptide text is derived from it. The star is where a group is joined. Cbz = O=C(OCc1ccccc1)*

Key:
[1] = tested on: P53; test: Proteasome inhibition of DaN cultures, P53 western blot; assay type: cell-based, human; settings: DaN cultures treated 24 hrs
Description: (§1) Protein degradation can be largely divided into protosomal and autophagy/lysosomal degradation pathways.

[2] = tested on: α-Synuclein; test: Proteasome inhibition of DaN cultures, α-Synuclein western blot; assay type: cell-based, human; settings: DaN cultures treated 24 hrs
Description: as §1

[3] = tested on: α-Synuclein; test: Western blot of α-Synuclein in iPSC-derived DaNs treated with lysosomal agonists; assay type: cell-based, human; settings: for amount of α-Synuclein protein: DaNs from control lines
Procedure: (§2) To test if the Inventors could reduce synuclein levels in our EOSPD DANs through activation of lysosomal specific pathways, the Inventors selected 3 lysosomal agonists. […] Starting at day 27, DaNs were treated for 3 days with the above lysosomal agonists.
(§3) The elevated phosphorylation of PKCa was absent in the undifferentiated iPSCs and no clear pattern was evident in peripheral blood from the individual patients indicating specificity to the differentiated DaNs.

[4] = tested on: TH enzyme; test: Western blot of TH enzyme in treated DaNs; assay type: cell-based, human; settings: both control and PD DaNs
Procedure: as §2

[5] = tested on: p-PKCa; test: Western blot of phosphorylated PKC alpha in treated DaNs; assay type: cell-based, human
Description: as §3

[6] = tested on: LAMP1; test: Western blot of LAMP1 in PEP-treated DaNs; assay type: cell-based, human; settings: for LAMP1 response to treatment: PD cells
Description: as §3
PEP is described as both an activator of the pro-apoptotic […] and an inhibitor of PKCα.

[7] = tested on: LC3; test: Western blot of LC3 in PEP-treated DaNs; assay type: cell-based, human; settings: PD cells
Description: as §3

[8] = tested on: cleaved caspase 3 (CC3); test: Cleaved caspase 3 in time-course of PEP treatment of DaNs; assay type: cell-based, human; settings: PD cells, on drug treatment; listed as PEP
Description: as §3
(§4) It is likely that the toxicity of PEP is more specific to highly proliferative cells whereas our differentiated neurons are largely post mitotoic.

[9] = tested on: SNCA; test: SNCA gene expression along time-course of PEP treatment; assay type: cell-based, human; settings: paired time-course samples
Description: as §3

[10] = tested on: TH; test: TH gene expression along time-course of PEP treatment; assay type: cell-based, human; settings: paired time-course samples
Description: as §3

[11] = PKC delta signal in DaN cultures on drug treatment; assay type: cell-based, human
Description: as §4

[12] = tested on: DaN cultures; test: LDH on drug treatment of DaN cultures (cell death); assay type: cell-based, human
Description: as §4

[13] = tested on: synuclein; test: Injection into ventricles of WT mice, synuclein in striatum; assay type: in vivo, mouse; settings: WT mice, 0.3, 3, and 30 uM injected into ventricles, 1 and 5 days post injection
Procedure: (§5) In vivo, PEP stimulates synuclein degradation. Dosage studies of 0.3, 3, and 30 uM PEP was injected into the ventricles of WT mice.

[14] = tested on: TH; test: Injection into ventricles of WT mice, TH in striatum; assay type: in vivo, mouse; settings: WT mice, 0.3, 3, and 30 uM injected into ventricles, 1 and 5 days post injection
Procedure: as §5

[15] = tested on: PKC C1 domains; settings: cited from earlier work
[16] = tested on: various cancer cell lines and primary acute myeloid leukaemia (AML) cells; settings: cited from earlier work
[17] = tested on: PC12 cell model; settings: cited from earlier work
[18] = treated 3 days starting at day 27
[19] = time-course, control and PD DaNs

Q: Which P53 level [1] does the source give for `CC(C)C[C@@H](C=O)NC(=O)[C@H](CC(C)C)NC(=O)[C@H](CC(C)C)NC(=O)OCc1ccccc1` [MG132] (Cbz-Leu-Leu-Leu-aldehyde) here?
A: accumulation of P53

Q: And the α-Synuclein levels [2]?
A: no substantial change

Q: For `C/C=C(/C)C(=O)O[C@H]1C(C)=C[C@]23C(=O)[C@@H](C=C(CO)[C@@H](O)[C@]12O)[C@H]1[C@@H](C[C@H]3C)C1(C)C` [PEP005, ingenol-3-angelate], which “amount of α-Synuclein protein” value [3, 18] is on record?
A: significantly reduced

Q: What about the synuclein levels ([3]; ESOPD DaNs, treated 3 days starting at day 27) of the same compound?
A: substantially reduced

Q: And the α-Synuclein levels ([3]; both control and PD DaNs)?
A: reduced

Q: What about the synuclein ([3]; luM PEP005 for 3 days, all treated lines) of the same compound?
A: reduced synuclein

Q: What about the “time until α-Synuclein is degraded in response to drug treatment” value [3, 19] of the same compound?
A: ≤ 24 h

Q: And the “amount of TH enzyme present” value [4]?
A: increased amount of TH enzyme present

Q: And the “amount of TH enzyme present” value ([4]; listed as PEP)?
A: increase in the amount of TH

Q: And the “PKC alpha phosphorylation signal” value ([5]; control and PD DaNs, at endpoint)?
A: completely ablating this signal

Q: What about the “elevated phosphorylation of PKCa” value ([5]; luM PEP005 for 3 days, DaNs from all iPSC lines) of the same compound?
A: clearly ablated

Q: And the “time until p-PKCa is degraded in response to drug treatment” value [5, 19]?
A: ≤ 24 h

Q: What about the “LAMP1 response to treatment” value [6] of the same compound?
A: does not appear to be replicated

Q: And the “LAMP1 response to treatment” value ([6]; listed as PEP)?
A: neither LAMP1 nor LC3 respond

Q: What about the “lysosomal protein LAMP1” value ([6]; control cells) of the same compound?
A: increase

Q: What about the “LC3 response to treatment” value [7] of the same compound?
A: neither LAMP1 nor LC3 respond

Q: What about the “cleaved caspase 3 (CC3) present” value [8] of the same compound?
A: marked decrease; also recorded: decrease in the amount of active caspase 3

Q: What about the “time after treatment at which SNCA is downregulated” value [9] of the same compound?
A: 4 h

Q: What about the “time after initial exposure at which TH is upregulated” value [10] of the same compound?
A: roughly 8 hours

Q: What about the PKC6 signal [11] of the same compound?
A: did not observe a strong PKC6 signal

Q: What about the “LDH on drug treatment” value [12] of the same compound?
A: nor do the Inventors see an increase in LDH

Q: What about the “synuclein in mouse striatum” value [13] of the same compound?
A: Reduction of synuclein

Q: And the “TH in mouse striatum” value [14]?
A: increase in TH

Q: And the “affinity for PKC C1 domains” value [15]?
A: subnanomolar affinity

Q: And the “selectivity for individual PKC isoforms” value ([15]; in vitro)?
A: no selectivity

Q: And the apoptosis ([16]; leukemic cell lines and primary AML cells)?
A: induces apoptosis

Q: And the proliferation ([16]; various cancer cell lines and primary AML cells)?
A: inhibiting proliferation

Q: What does the source list for `C=CCNc1ncnc2ccc(Br)cc12` [SMER28]?
A: amount of α-Synuclein protein [3, 18]: significantly reduced; Huntington and α-Synuclein aggregates [17]: reduce Huntington and α-Synuclein aggregates

Q: With `OC[C@H]1O[C@H](O[C@H]2O[C@H](CO)[C@@H](O)[C@H](O)[C@H]2O)[C@H](O)[C@@H](O)[C@@H]1O` [Trehalose] as the compound, how does the “amount of α-Synuclein protein” value [3, 18] read?
A: not Trehalose significantly reduced
